The source of these data is ChEMBL document CHEMBL1201862, “PubChem BioAssay data set” (2004).

Test systems include LXFL 529; XF498; DMS-273; SNB-78; HOP-18; DMS-114; T47D; 786-0; RXF 631.
Assay in all cases: NCI tumour cell line growth inhibition, 48 h

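Values below derive from 48-hour exposures of cells grown in 96-well plates, with endpoints linearly interpolated between the two concentrations bracketing the appropriate inhibition level. GI50 marks 50% less growth.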 Calls of active or inactive are those of the source. Cut-off read from the data, not from the text of the source: active = GI50 up to about 1.1 µM and inactive = higher. Where only a bound is given, the exact number is not on record here.

Turning to `COc1ccc(/C(Cl)=C(\CN(C)C)c2ccc(OC)c(OC)c2)cc1OC`, the GI50 is > 100 µM (inactive) in the assay on LXFL 529; 19.8 µM (inactive) with XF498; > 100 µM (inactive) in the assay with DMS-273; > 100 µM (inactive) in the assay with SNB-78; > 100 µM (inactive) with HOP-18.

With `O=C(Nc1ccc(Cl)cc1)c1cc2cc(/N=N/c3ccccc3Cl)ccc2oc1=O`, the GI50 in the assay with LXFL 529 was 8.11 µM (inactive); in the assay with DMS-114 it was 5.81 µM (inactive); with XF498, 24.4 µM (inactive); in the assay with SNB-78 it was 22.9 µM (inactive); in the assay with HOP-18 it was 33.8 µM (inactive).

Consider `CCCC[S+]([O-])CC(CO)NC(=O)/C=C/c1c(C)[nH]c(=O)[nH]c1=O` (stereo unspecified), for which the GI50 is 6.41 µM (inactive) with DMS-114, 4.18 µM (inactive) in the assay with XF498, 9.75 µM (inactive) in the assay with DMS-273 and 31.6 µM (inactive) with HOP-18.

For `N/C(=N\O)N/N=C\c1ccc(O)c(O)c1O`, the GI50 was 21.2 µM (inactive) in the assay with DMS-114; > 100 µM (inactive) in the assay on XF498; 13.6 µM (inactive) with DMS-273; > 51.3 µM (inactive) in the assay on SNB-78; > 100 µM (inactive) in the assay on HOP-18.

On to `S=c1sc2c(s1)SC(c1ccccc1)CS2` (stereo unspecified), for which the GI50 is > 47.9 µM (inactive) with DMS-114, > 100 µM (inactive) in the assay on DMS-273, > 100 µM (inactive) in the assay on SNB-78 and > 100 µM (inactive) with HOP-18.

Consider `CCOC(=O)C(O)(NC(=O)c1ccccc1F)C(F)(F)F` (stereo unspecified), for which the GI50 in the assay with T47D is > 100 µM (inactive).

Take `C=CCCC(On1c(-c2ccc(Cl)cc2)csc1=S)c1ccccc1` (stereo unspecified): the GI50 is 17 µM (inactive) in the assay with T47D and 32.6 µM (inactive) in the assay on 786-0.

With `CNC(=O)OCC1=C(COC(=O)NC)CN(c2ccc(OC)cc2)C1`, the GI50 in the assay with T47D and in the assay with 786-0 was > 100 µM (inactive) in each case.

In the case of `CSc1nc(NC2OCC(OC(C)=O)C(OC(C)=O)C2OC(C)=O)c(/N=C(\C)C(C)=O)c(=O)[nH]1` (stereo unspecified), the GI50 with LXFL 529, with DMS-114, with XF498, in the assay with DMS-273, with SNB-78 and in the assay on HOP-18 was > 100 µM (inactive) in each case.

Consider `COc1ccc([C@H]2c3cc4c(cc3OC(O)(CO)[C@H]2C(=O)O)OCO4)c(OC)c1.COc1ccc([C@H]2c3cc4c(cc3OC3(O)COC(=O)[C@@H]23)OCO4)c(OC)c1` (stereo partly specified), for which the GI50 with LXFL 529, with DMS-114, in the assay on XF498, with DMS-273, with SNB-78 and with HOP-18 was > 100 µM (inactive) each time.

Turning to `COS(=O)c1cc(Cl)cc(Cl)c1O` (stereo unspecified), the GI50 in the assay with LXFL 529, in the assay on DMS-114 and in the assay on XF498 was > 100 µM (inactive) throughout.

Consider `O=Nn1c2ccccc2c2cc([N+](=O)[O-])ccc21`, for which the GI50 with T47D is 31.1 µM (inactive).

Take `COc1ccc2c(C)cc(N/N=C(\C)C=O)nc2c1`: the GI50 with T47D is 15.5 µM (inactive); in the assay on 786-0, 11.6 µM (inactive).

For the compound `COC(=O)C(C)NP(=O)(N1CC1)N1CC1` (stereo unspecified), the GI50 in the assay with LXFL 529 is > 100 µM (inactive); in the assay on DMS-114 it was 66.4 µM (inactive); in the assay with XF498, > 100 µM (inactive); with DMS-273 it was 91 µM (inactive); in the assay on SNB-78 it was > 100 µM (inactive); in the assay on RXF 631, > 100 µM (inactive).

As to `Cc1ccc(C)c(NC(=O)CCC(=O)CC(=O)C(C)(C)C)c1`, the GI50 in the assay on LXFL 529, in the assay with DMS-114, in the assay with XF498, in the assay with DMS-273, with 786-0 and in the assay on SNB-78 was > 100 µM (inactive) in each case. Further, the GI50 with HOP-18 is > 100 µM (inactive).

Turning to `Cc1cccc(C)c1NC(=O)/C(CC(=O)CC(c1ccccc1)c1c(O)c2ccccc2oc1=O)=N/O` (stereo unspecified), the GI50 in the assay on 786-0 was > 100 µM (inactive).

As for `CC1(C)N=C(c2ccccc2)SC12S[C@@H]1CCCC[C@H]1S2`, the GI50 in the assay on T47D was 35.8 µM (inactive).

Regarding `O=S(=O)(C1=CC(S(=O)(=O)c2ccccc2)CN(Cc2ccccc2)C1c1cccc2ccccc12)c1ccccc1` (stereo unspecified), the GI50 with DMS-114, in the assay with DMS-273, in the assay with 786-0, with SNB-78 and in the assay with RXF 631 was > 69 µM (inactive) each time.

For the compound `O=C1Nc2ccccc2N/C1=C\C(=O)C(F)F`, the GI50 in the assay with 786-0 is > 100 µM (inactive).

Consider `CC1(C)OCC(CO)(CO)CO1`, for which the GI50 in the assay on T47D was > 100 µM (inactive).

Regarding `COc1ccc(C(=O)C2CC3(CCC2(O)c2ccc(OC)cc2)CC(=O)Nc2ccccc2C3=O)cc1` (stereo unspecified), the GI50 with T47D was 0.366 µM (active).

With `CCOC(=O)Cc1cnc(NC(NC(=O)CC)(C(F)(F)F)C(F)(F)F)s1`, the GI50 in the assay on T47D was > 100 µM (inactive).

Consider `COc1cc(/N=N\c2cccc(S(=O)(=O)O)c2)ccc1/N=N\c1ccc(/C=C/c2ccc(-n3on3-c3ccc(/C=C/c4ccc(/N=N/c5ccc(/N=N\c6cccc(S(=O)(=O)O)c6)cc5OC)cc4S(=O)(=O)O)c(S(=O)(=O)O)c3)cc2S(=O)(=O)O)c(S(=O)(=O)O)c1`, for which the GI50 in the assay on DMS-114 was > 100 µM (inactive); with XF498, > 83 µM (inactive); with DMS-273 it was > 69.5 µM (inactive); in the assay with SNB-78, > 100 µM (inactive); in the assay with HOP-18 it was > 100 µM (inactive).

Consider `Oc1nc2ccccc2c2oc3ccccc3c12`, for which the GI50 in the assay with T47D was 16.1 µM (inactive).
